The source of these data is PubChem BioAssay AID1259407 (Chemical Carcinogenesis Research Information System (CCRIS), 2018).

Active and inactive are the calls of the source. The rule behind the calls is not given here.

The test system of the series is CCRIS mutagenicity, Ames/micronucleus/aberration tests. Kind of series: CCRIS mutagenicity studies.

In the case of `CCC[C@H]1O[C@H]1c1ccccc1`, the mutagenic call by setting is: (Test System: AMES SALMONELLA TYPHIMURIUM, Strain/Indicator: TA98, Metabolic Activation: NONE, Method: PREINCUBATION (PHOSPHATE-BUFFERED KCL OR SOLUTE-FREE WATER MEDIA)) “inactive; negative”; (Test System: AMES SALMONELLA TYPHIMURIUM, Strain/Indicator: TA100, Metabolic Activation: NONE, Method: PREINCUBATION (PHOSPHATE-BUFFERED KCL OR SOLUTE-FREE WATER MEDIA)) “inactive; negative”; (Test System: AMES SALMONELLA TYPHIMURIUM, Strain/Indicator: TA104, Metabolic Activation: NONE, Method: PREINCUBATION (PHOSPHATE-BUFFERED KCL OR SOLUTE-FREE WATER MEDIA)) “inactive; negative”.

With `O=c1[nH]cc(/C=C/Br)c(=O)[nH]1`, the mutagenic call was “inactive; negative” (Test System: CHINESE HAMSTER V-79, Strain/Indicator: V-79/8-AZAGUANINE, Metabolic Activation: NONE) and “inactive; negative” (Test System: UDS RODENT HEPATOCYTES, Strain/Indicator: THY INCORP, Metabolic Activation: NONE).

In the case of `CCOP(=S)(OCC)Oc1nc(Cl)n(C(C)C)n1`, the mutagenic call reads like this: (Test System: AMES SALMONELLA TYPHIMURIUM, Strain/Indicator: TA98, Metabolic Activation: NONE, Method: PREINCUBATION) “active; positive”; (Test System: AMES SALMONELLA TYPHIMURIUM, Strain/Indicator: TA98, Metabolic Activation: RAT, LIVER, S-9, AROCLOR 1254, Method: PREINCUBATION) “active; positive”.

Regarding `Nc1c2ccccc2nc2ccc(Br)cc12`, the mutagenic call (Test System: AMES SALMONELLA TYPHIMURIUM, Strain/Indicator: TA1537, Metabolic Activation: NONE, Method: PREINCUBATION) is “active; positive”.
